How the values were obtained:
[1] = system: female C57BL/6 mice at the age of 21 months; test: grip strength test in aged mice; type: in vivo; conditions: oral for 5 weeks; for fatigue (grip strength weakening) on repeated grip strength measurement: sobrerol 17.6 or 35.3 mg/kg, clenbuterol 2 mg/kg
Method: (§1) The grip strength was measured using a grip strength measuring device for mouse (BIOSEB) (FIG. 6). Specifically, the front limbs of the mice of the Example 3-1 were placed on a wire net attached to an instrument panel capable of monitoring the strength, and the strength to hold the wire net was measured while the tail was gripped and pulled downward. The test was repeated three times in succession.
(§2) Experiments were conducted to confirm whether sobrerol increases muscle strength in aged mice. Female C57BL/6 mice at the age of 21 months were adapted to the environment for 2 weeks and then orally administered with drugs for 5 weeks. Specifically, the negative control group was administered with water, the positive control group was administered with clenbuterol at a concentration of 2 mg/kg (mouse), and the sobrerol administration experimental group was orally administered with sobrerol at a concentration of 17.6 or 35.3 mg/kg (mouse). Then, locomotion tests (grip strength, treadmill) were conducted again to verify the effect.
The grip strength test is the same as the Example 3-2.

[2] = system: male C57BL/6 mice; test: muscle weight measurement after exercise restriction; type: in vivo; conditions: oral
Method: (§3) A total of 45 male C57BL/6 mice at 5 weeks of age (Daehan BioLink) were used in this animal experiment. After 2 weeks of adaptation to the surrounding environment, sobrerol was orally administered twice daily since 7 weeks of age. The control group was administered with 200 μL of water/20 g of mouse, and sobrerol was orally administered at a ratio of 1:2:4 [8.8 mg/200 μL/20 g (mouse), 17.6 mg/200 μL/20 g (mouse) and 35.3 mg/200 μL/20 g (mouse)] to verify dose dependency. At 8 weeks of age, both hind limbs of the mice were immobilized for 10 days using a surgical stapler (Autosuture Royal 35W stapler). (A novel hindlimb immobilization procedure for studying skeletal muscle atrophy and recovery in mouse. J Appl Physiol 106: 2049-2059, 2009). After removing the surgical stapler, they were allowed to move again for 3 days (remobilization), and then exercise capability improvement-verification tests (treadmill, and grip tests) were conducted. As a result, the diameters of the muscle fibers of the mice orally administered with sobrerol were larger than those of the control group orally administered with distilled water (FIG. 11).

[3] = system: myosin heavy chain (MyHC); test: qRT-PCR of myogenic regulatory factor mRNA in C2C12 myoblasts: myosin heavy chain; type: cell-based; conditions: 0.1 μM sobrerol, 48 hours, growth medium
Method: (§4) Experiments were conducted to verify the effect of sobrerol on mRNA of myogenic regulatory factor. Specifically, the myoblasts (C2C12 myoblast cells) placed in the growth medium were treated with 0.1 μM sobrerol for 48 hours, and then subjected to qRT-PCR to measure the levels of MyoD, myogenin, and myosin heavy chain (MyHC).

[4] = system: myogenin; test: qRT-PCR of myogenic regulatory factor mRNA in C2C12 myoblasts: myogenin; type: cell-based; conditions: 0.1 μM sobrerol, 48 hours, growth medium
Method: as §4

[5] = system: aged mice; test: treadmill test in aged mice after exercise restriction; type: in vivo; conditions: hind limbs immobilized 5 days then remobilization
Method: as §2
Both hind limbs of the mice were immobilized for 5 days using a surgical stapler (Autosuture Royal 35W stapler), and after removing the surgical stapler, they were allowed to move again (remobilization), and then exercise capability was evaluated by a treadmill test. As a result, the running time on the treadmill decreased after the exercise restriction as compared to that before the exercise restriction in the control group administered with distilled water, whereas the running time was not affected by exercise restriction in the experiment group administered with sobrerol (FIG. 17).

[6] = system: female C57BL/6 mice at the age of 21 months; test: muscle weight in aged mice; type: in vivo; conditions: 35.3 mg/kg
Method: as §2
(§5) In addition, changes in the muscle size and the muscle weight of the aged mice by sobrerol were verified by the method of the Example 3-3.
(§6) In addition, as in the Example 3-3, the diameter of the muscle fiber of the tibialis anterior (TA) section was measured by immunofluorescence analysis using laminin antibodies.

[7] = system: MyoD; test: qRT-PCR of myogenic regulatory factor mRNA in C2C12 myoblasts: MyoD; type: cell-based; conditions: 0.1 μM sobrerol, 48 hours, growth medium
Method: as §4

[8] = system: tibialis anterior (TA) muscle fibers; test: muscle fiber diameter (laminin immunofluorescence of tibialis anterior section) in aged mice; type: in vivo; conditions: aged mice fed with sobrerol
Method: In addition, after the exercise restriction in the Example 3-3, sections of the tibialis anterior (TA) were stained by immunofluorescence analysis using the antibodies against laminin, which is a protein existing at the periphery of muscle fibers, and the diameter of each muscle fiber was measured.
as §2, §5, §6

[9] = system: male C57BL/6 mice; test: grip strength test after hind limb immobilization and remobilization; type: in vivo
Method: as §3, with “conducted.” for “conducted. As a result, the diameters of the muscle fibers of the mice orally administered with sobrerol were larger than those of the control group orally administered with distilled water (FIG. 11).”
as §1

[10] = system: tibialis anterior (TA) muscle fibers; test: muscle fiber diameter (laminin immunofluorescence of tibialis anterior sections) after exercise restriction; type: in vivo, mice; conditions: oral
Method: A total of 45 male C57BL/6 mice at 5 weeks of age (Daehan BioLink) were used in this animal experiment. After 2 weeks of adaptation to the surrounding environment, sobrerol was orally administered twice daily since 7 weeks of age. The control group was administered with 200 μL of water/20 g of mouse, and sobrerol was orally administered at a ratio of 1:2:4 [8.8 mg/200 μL/20 g (mouse), 17.6 mg/200 μL/20 g (mouse) and 35.3 mg/200 μL/20 g (mouse)] to verify dose dependency. At 8 weeks of age, both hind limbs of the mice were immobilized for 10 days using a surgical stapler (Autosuture Royal 35W stapler). (A novel hindlimb immobilization procedure for studying skeletal muscle atrophy and recovery in mouse. J Appl Physiol 106: 2049-2059, 2009). After removing the surgical stapler, they were allowed to move again for 3 days (remobilization), and then exercise capability improvement-verification tests (treadmill, and grip tests) were conducted. In addition, after the exercise restriction in the Example 3-3, sections of the tibialis anterior (TA) were stained by immunofluorescence analysis using the antibodies against laminin, which is a protein existing at the periphery of muscle fibers, and the diameter of each muscle fiber was measured.

[11] = system: myogenin promoter; test: secreted MyoG luciferase assay system (myogenin promoter-secreted luciferase C2C12 myoblast line); type: cell-based; conditions: for luciferase activity increase as compared to the negative control: negative control (MeOH) set at 1
Description: To evaluate the myoblast differentiation-promoting capability of sobrerol, a secreted MyoG luciferase assay system was used (FIG. 1). Specifically, the promoter portion of myogenin, which is a protein whose expression is increased upon myogenesis, was cloned into a secreted luciferase vector (pMetLuc2-Reporter Vector, Clontech), and then the vector was transfected into myoblasts C2C12 to prepare a myogenin promoter-secreted luciferase C2C12 myoblast line capable of stably expressing the luciferase enzyme The differentiation degree of the myoblasts into myotube cells can be quantitatively verified through the system in which the luciferase enzymes are secreted into the medium as the myogenin promoter is activated. To induce differentiation into muscle cells, DMEM (Dulbecco's Modified Eagle Medium, Invitrogen) medium supplemented with 2% horse serum was added to the C2C12 myoblasts. Herein, the expressed MEF2 and MyoD bind to the myogenin promoter, and then the luciferase enzymes are expressed and secreted out of the cell. Since the secreted luciferase enzymes are present in the medium, it can be measured to verify the degree of myogenesis. […] Specific experimental methods are as follows. On the first day, the C2C12 cells prepared in the Example 1-1 were inoculated into a 96-well plate containing DMEM medium supplemented with 10% bovine serum (FBS) at a concentration of 5×10^3 cells/well. In the morning of the second day, the medium of the well plate was replaced with DMEM medium (Growth medium, GM) supplemented with 10% bovine serum, which is the same component. In the afternoon, the medium (GM) was collected. Then, each well was treated with 100 μL of DMEM medium (differentiation medium 1, DM1) supplemented with 2% horse serum diluted with the sobrerol at each concentration. On the third day, the DM1 medium was collected, and the wells were treated with the same medium as in the second day (DM2). On the fourth day, the DM2 was collected. The media containing the luciferase secreted in the differentiation process of C2C12 cells were collected starting from the growth medium (GM) to the first day differentiation medium (DM1) and the second day differentiation medium (DM2) as described above, and 5 μL of coelenterazine as a substrate was added to 50 μL of the collected medium containing the luciferase enzyme, and the generated light was measured using a luminometer. The myogenesis-promoting capability of sobrerol at each concentration was measured through digitization by subtracting the measured values of DM0 from the measured values of DM1 and DM2. […] Ready-To-Glow™ Secreted Luciferase Reporter Systems (Clontech) was used as the luciferase assay kit, and the experiment was repeated three times.

[12] = system: male C57BL/6 mice; test: treadmill test after hind limb immobilization and remobilization; type: in vivo; conditions: immobilized mice
Method: A total of 45 male C57BL/6 mice at 5 weeks of age (Daehan BioLink) were used in this animal experiment. After 2 weeks of adaptation to the surrounding environment, sobrerol was orally administered twice daily since 7 weeks of age. The control group was administered with 200 μL of water/20 g of mouse, and sobrerol was orally administered at a ratio of 1:2:4 [8.8 mg/200 μL/20 g (mouse), 17.6 mg/200 μL/20 g (mouse) and 35.3 mg/200 μL/20 g (mouse)] to verify dose dependency. At 8 weeks of age, both hind limbs of the mice were immobilized for 10 days using a surgical stapler (Autosuture Royal 35W stapler). (A novel hindlimb immobilization procedure for studying skeletal muscle atrophy and recovery in mouse. J Appl Physiol 106: 2049-2059, 2009). After removing the surgical stapler, they were allowed to move again for 3 days (remobilization), and then exercise capability improvement-verification tests (treadmill, and grip tests) were conducted. The equipment shown in FIG. 8 was used for the treadmill test. The treadmill test was conducted as shown in FIG. 9 with reference to the treadmill protocol of used for the treadmill test (DOI 10.1016/j.cell.2006.11.013_Cell, Volume 127 Supplemental Data). One day prior to the treadmill test, the equipment was warmed up at a rate of 6 m/min for 10 minutes. At the starting point, electric stimulation was configured to flow so that the mice were forced to exercise. The next day, the test was started at a speed of 8 m/min and the speed was increased by 2 m/min every 20 minutes. One hour after the start of the treadmill test, the speed of 12 m/min was maintained, and the angle was increased by 5° and the electric stimulation was turned off. After 20 minutes, the angle of 5° was maintained but only the speed was increased by 2 m/min. Under the above condition, the running times of the mice were measured and recorded.

[13] = system: myosin heavy chain protein; test: immunofluorescence of myosin heavy chain protein in C2C12 myoblasts; type: cell-based; conditions: 0.1 μM sobrerol, 72 hours, differentiation medium
Method: Among the myogenic regulatory factors whose mRNA increased in the Example 2-1, experiments were conducted to verify the effect of sobrerol on the expression of myosin heavy chain. Specifically, the expression level of the myosin heavy chain protein was measured by immunofluorescence after treating the C2C12 myoblasts placed in the differentiation medium with 0.1 μM of sobrerol for 72 hours.

[14] = system: female C57BL/6 mice at the age of 21 months; test: treadmill test in aged mice; type: in vivo; conditions: 5 weeks
Method: One day prior to the treadmill test, the equipment was warmed up at a rate of 6 m/min for 10 minutes. At the starting point, electric stimulation was configured to flow so that the mice were forced to exercise. The next day, the test was started at a speed of 8 m/min and the speed was increased by 2 m/min every 20 minutes. One hour after the start of the treadmill test, the speed of 12 m/min was maintained, and the angle was increased by 5° and the electric stimulation was turned off. After 20 minutes, the angle of 5° was maintained but only the speed was increased by 2 m/min. Under the above condition, the running times of the mice were measured and recorded.
as §2
Tread mill test is the same as Example 3-3.

CC(C)(C)NCC(O)c1cc(Cl)c(N)c(Cl)c1 (centres unmarked) [clenbuterol]
fatigue (grip strength weakening) on repeated grip strength measurement [1]: did not show the increase in fatigue

CC1=CCC(C(C)(C)O)CC1O (centres unmarked) [sobrerol]
weight of extensor digitorum longus (EDL) [2]: significantly increased
weight of gastrocnemius (GA) [2]: significantly increased
weight of soleus [2]: significantly increased
weight of tibialis anterior (TA) [2]: significantly increased
myosin heavy chain mRNA increase [3]: ≥ 25 fold
myogenin mRNA increase [4]: 4 fold
treadmill running time after exercise restriction versus before [5]: not affected
first measured grip strength values, difference between groups [1]: no differences
fatigue (grip strength weakening) on repeated grip strength measurement [1]: did not show the increase in fatigue
weights of the gastrocnemius (GA) [6]: increased to a significant level
MyoD mRNA increase [7]: 2 fold
diameters of the muscle fibers (tibialis anterior section) [8]: further increased
grip strength with higher concentration of sobrerol administered ([9]; oral 8.8, 17.6, 35.3 mg/kg, immobilized mice): increasing tendency
grip strength measurement value ([9]; oral, twice daily, hind limbs immobilized 10 days, remobilization 3 days, negative control 3.5 N or less): ≥ 4.0 N
diameters of the muscle fibers (tibialis anterior) versus distilled water control [10]: larger
luciferase activity increase as compared to the negative control ([11]; 0.01 nM sobrerol, C2C12): ≥ 1.2 fold
luciferase activity versus control group ([11]; 0.01 nM to 10 μM sobrerol, C2C12): higher luciferase activity than the control group
luciferase activity increase as compared to the negative control ([11]; 0.1 nM sobrerol, C2C12): about 1.5 fold
concentration with the greatest differentiation-promoting capability ([11]; C2C12 myogenin promoter luciferase): 0.1 nM
treadmill running time versus group administered with distilled water ([12]; 8.8 mg/kg oral, still shorter than non-immobilization group): slightly longer
treadmill running time versus non-immobilization group ([12]; 17.6 mg/kg oral): almost similar to the non-immobilization group
treadmill running time versus non-immobilization group ([12]; 35.3 mg/kg oral): longer as compared to the non-immobilization group
myosin heavy chain protein fluorescence intensity versus DMSO group [13]: stronger
treadmill running time versus negative control group ([14]; 17.6 mg/kg oral): significantly longer
treadmill running time versus negative control group ([14]; 35.3 mg/kg oral): longer running time than the negative control group
